Assay results published in US20080200376A1, “Compositions and Methods For the Treatment Of Obesity and Sexual Dysfunction” (priority 2004, published 2008).

Assays:
[1] = test system: foot tapping in gerbils induced by central injection of an NK-1 agonist; assay: Gerbil foot-tapping assay; assay type: in vivo; conditions: i.v.
Description: CNS-penetrant NK-1 receptor antagonists for use in the present invention can be identified by their ability to inhibit foot tapping in gerbils induced by anxiogenic agents (such as pentagastrin) or central infusion of NK-1 receptor agonists such as GR73632, or caused by aversive stimulation such as foot shock or single housing, based on the method of Rupniak & Williams, Eur. J. Pharmacol., 1994, 265, 179.
Male or female Mongolian gerbils (35-90 g) are anaesthetised by inhalation of an isoflurane/oxygen mixture to permit exposure of the jugular vein in order to permit administration of test compounds or vehicle in an injection volume of 5 ml/kg i.v. Alternatively, test compounds may be administered orally or by subcutaneous or intraperitoneal routes. A skin incision is then made in the midline of the scalp to expose the skull. […] The duration and/or intensity of hind foot tapping is then recorded continuously for approximately 5 minutes. Alternatively, the ability of test compounds to inhibit foot tapping evoked by aversive stimulation, such as foot shock or single housing, may be studied using a similar method of quantification.

[2] = test system: distress vocalisations in guinea-pig pups; assay: Separation-induced vocalisation assay; assay type: in vivo; conditions: p.o.
Description: Male and female guinea-pigs pups are housed in family groups with their mothers and littermates throughout the study. Experiments are commenced […] when the pups are 2 weeks old. Before entering an experiment, the pups are screened to ensure that a vigorous vocalisation response is reproducibly elicited following maternal separation. The pups are placed individually in an observation cage (55 cm×39 cm×19 cm) in a room physically isolated from the home cage for 15 minutes and the duration of vocalisation during this baseline period is recorded. Only animals which vocalise for longer than 5 minutes are employed for drug challenge studies (approximately 50% of available pups may fail to reach this criterion). On test days each pup receives an oral dose or an s.c. or i.p. injection of test compound or vehicle and is then immediately returned to the home cage with its mother and siblings for 30 to 60 minutes (or for up to 4 hours following an oral dose, dependent upon the oral pharmacokinetics of the test compound) before social isolation for 15 minutes as described above. The duration of vocalisation on drug treatment days is expressed as a percentage of the pre-treatment baseline value for each animal. The same subjects are retested once weekly for up to 6 weeks. Between 6 and 8 animals receive each test compound at each dose tested.

[3] = test system: cisplatin-induced emesis in ferrets; assay: Ferret emesis assay; assay type: in vivo; conditions: p.o.
Description: Individually housed male ferrets (1.0-2.5 kg) are dosed orally by gavage with test compound. Ten minutes later they are fed with approximately 100 g of tinned cat food. At 60 minutes following oral dosing, cisplatin (10 mg/kg) is given i.v. via a jugular vein catheter inserted under a brief period of halothane anaesthesia. The catheter is then removed, the jugular vein ligated and the skin incision closed. The ferrets recover rapidly from the anaesthetic and are mobile within 10-20 minutes. The animals are observed continuously during recovery from the anaesthetic and for 4 hours following the cisplatin injection, after which time the animals are killed humanely. The numbers of retches and vomits occurring during the 4 hours after cisplatin administration are recorded by trained observers.

ferrets = assay: MC4R associated emesis in ferrets, Compound A and Compound B (Table 1); assay type: in vivo, ferret; conditions: Compound B 10 mg/kg PO; for % Emesis: ferrets; for # of Ferrets: ferrets with emesis/dosed
Description: (§1) Food intake (FI) was monitored at 1, 2, 4, and 24, hours after dosing. Body weight (BWT) was measured at the time of dosing and at 24 hours. Any incidence of emesis or abnormal behavior by subjects was recorded. Two studies were combined to generate the data.

[4] = Food intake in ad lib fed ferrets, Compound A and Compound B (FIG. 1); assay type: in vivo, ferret; conditions: oral, Compound B 10 mg/kg, Compound A 60 mg/kg or the combination, 1, 2, 4 and 24 hours after dosing
Description: FIG. 1. […] All food intake data were analyzed by two-tailed T-TEST.
as §1

SMILES | gerbil foot-tapping (5 mins.) ID50 ([1]; 5 mins.) [mg/kg] | gerbil foot-tapping (24 hrs.) ID50 ([1]; 24 hrs.) [mg/kg] | guinea-pig vocalisation (4 hr. pre-treatment) ID50 [2] [mg/kg] | ferret emesis ID90 [3] [mg/kg] | % Emesis (ferrets; 1 hour) [%] | % Emesis (ferrets; 2 hours) [%] | % Emesis (ferrets; 4 hours) [%] | % Emesis (ferrets; Total) [%] | # of Ferrets (ferrets; 1 hour) | # of Ferrets (ferrets; 2 hours) | # of Ferrets (ferrets; 4 hours) | # of Ferrets (ferrets; Total) | Food intake [4]
C[C@@H](O[C@H]1OCCN(Cc2nc(=O)[nH][nH]2)[C@H]1c1ccc(F)cc1)c1cc(C(F)(F)F)cc(C(F)(F)F)c1 [2-(R)-(1-(R)-(3,5-bis(trifluoromethyl)phenyl)ethoxy)-3-(S)-(4-fluorophenyl)-4-(3-(5-oxo-1H,4H-1,2,4-triazolo)methyl)morpholine] | 0.36 | 0.33 | 0.73 | < 3 |  |  |  |  |  |  |  |  | 
C[C@@H](O[C@H]1OCCN(Cc2nn[nH]c2CN(C)C)[C@H]1c1ccc(F)cc1)c1cc(C(F)(F)F)cc(C(F)(F)F)c1 [Compound B, 2-(R)-(1-(R)-(3,5-bis(trifluoromethyl)phenyl)ethoxy)-4-(5-(dimethylamino)methyl-1,2,3-triazol-4-yl)methyl-3-(S)-(4-fluorophenyl)morpholine] |  |  |  |  | 0 | 0 | 0 | 0 | 0/9 | 0/9 | 0/9 | 0/9 | significantly reduced in the NK1 dose group at 24 hours only
